For one test, the system named is CAL-12T. The experiment in a line: relative viability (nuclei count vs DMSO), 5 days (fraction); higher = more cells survive. The conditions noted are these: first compound 0.8 µM. The essentials:
(§1)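 Relative viability equals treated-well nuclei counts divided by vehicle-well nuclei counts. Counts came from 4× images of lung cancer cell lines grown in 1536-well plates for 5 days after pin-tool dosing on the day after seeding. Dosing used one drug alone or a fixed anchor-drug dose plus five library-drug doses (not always all listed) in √10 steps, and values are medians of duplicate plates.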
Compound `CCCCCCCCCCCC1=C(O)C(=O)C=C(O)C1=O` [Embelin] + COc1cc2c(Oc3ccc(NC(=O)C4(C(=O)Nc5ccc(F)cc5)CC4)cc3F)ccnc2cc1OCCCN1CCOCC1 [Foretinib] (partner 0.25 µM) displayed a relative viability of 1.22.

`CCCCCCCCCCCC1=C(O)C(=O)C=C(O)C1=O` [Embelin] + CS(=O)(=O)N1CCN(Cc2cc3nc(-c4cccc5[nH]ncc45)nc(N4CCOCC4)c3s2)CC1 [Pictilisib] (partner 1 µM) returned a relative viability of 0.587.

Regarding `CCCCCCCCCCCC1=C(O)C(=O)C=C(O)C1=O` [Embelin] + C[C@@H](Oc1cc(-c2cnn(C3CCNCC3)c2)cnc1N)c1c(Cl)ccc(F)c1Cl [Crizotinib] (partner 1 µM), the relative viability turned out to be 0.785.

The test is the same for the next values; noted with them: first compound 2.53 µM.
`CCCCCCCCCCCC1=C(O)C(=O)C=C(O)C1=O` [Embelin] + O=C(CCCCCCC(=O)Nc1ccccc1)NO [Vorinostat] (partner 1 µM) returned a relative viability of 0.677.

Regarding `CCCCCCCCCCCC1=C(O)C(=O)C=C(O)C1=O` [Embelin] + Cc1cc(Nc2cc(N3CCN(C)CC3)nc(Sc3ccc(NC(=O)C4CC4)cc3)n2)n[nH]1 [Tozasertib] (partner 0.1 µM), the relative viability stood at 0.372.

`CCCCCCCCCCCC1=C(O)C(=O)C=C(O)C1=O` [Embelin] + COc1cc2c(Oc3ccc(NC(=O)C4(C(=O)Nc5ccc(F)cc5)CC4)cc3F)ccnc2cc1OCCCN1CCOCC1 [Foretinib] (partner 0.25 µM) returned a relative viability of 1.26.

For `CCCCCCCCCCCC1=C(O)C(=O)C=C(O)C1=O` [Embelin] + C[C@@H](Oc1cc(-c2cnn(C3CCNCC3)c2)cnc1N)c1c(Cl)ccc(F)c1Cl [Crizotinib] (partner 1 µM), the relative viability amounted to 0.724.

Still in this test, the particulars now being: first compound 8 µM.
`CCCCCCCCCCCC1=C(O)C(=O)C=C(O)C1=O` [Embelin] + O=C(CCCCCCC(=O)Nc1ccccc1)NO [Vorinostat] (partner 1 µM) gave a relative viability of 0.697.

On to `CCCCCCCCCCCC1=C(O)C(=O)C=C(O)C1=O` [Embelin] + Cc1cc(Nc2cc(N3CCN(C)CC3)nc(Sc3ccc(NC(=O)C4CC4)cc3)n2)n[nH]1 [Tozasertib] (partner 0.1 µM), for which the relative viability worked out at 0.358.

The compound `CCCCCCCCCCCC1=C(O)C(=O)C=C(O)C1=O` [Embelin] + COc1cc2c(Oc3ccc(NC(=O)C4(C(=O)Nc5ccc(F)cc5)CC4)cc3F)ccnc2cc1OCCCN1CCOCC1 [Foretinib] (partner 0.25 µM) showed a relative viability of 1.16.

`CCCCCCCCCCCC1=C(O)C(=O)C=C(O)C1=O` [Embelin] + CS(=O)(=O)N1CCN(Cc2cc3nc(-c4cccc5[nH]ncc45)nc(N4CCOCC4)c3s2)CC1 [Pictilisib] (partner 1 µM) yielded a relative viability of 0.391.

As for `CCCCCCCCCCCC1=C(O)C(=O)C=C(O)C1=O` [Embelin] + C[C@@H](Oc1cc(-c2cnn(C3CCNCC3)c2)cnc1N)c1c(Cl)ccc(F)c1Cl [Crizotinib] (partner 1 µM), the relative viability turned out to be 0.801.

A further test has as its system BEN. The test is described as above. The conditions noted are these: first compound 0.08 µM. In short, it runs like this:
as §1
Compound `CCCCCCCCCCCC1=C(O)C(=O)C=C(O)C1=O` [Embelin] + O=C(CCCCCCC(=O)Nc1ccccc1)NO [Vorinostat] (partner 1 µM) returned a relative viability of 0.57.

`CCCCCCCCCCCC1=C(O)C(=O)C=C(O)C1=O` [Embelin] + Cc1cc(Nc2cc(N3CCN(C)CC3)nc(Sc3ccc(NC(=O)C4CC4)cc3)n2)n[nH]1 [Tozasertib] (partner 0.1 µM) had a relative viability of 0.518.

In turn, `CCCCCCCCCCCC1=C(O)C(=O)C=C(O)C1=O` [Embelin] + COc1cc2c(Oc3ccc(NC(=O)C4(C(=O)Nc5ccc(F)cc5)CC4)cc3F)ccnc2cc1OCCCN1CCOCC1 [Foretinib] (partner 0.25 µM) yielded a relative viability of 0.681.

`CCCCCCCCCCCC1=C(O)C(=O)C=C(O)C1=O` [Embelin] + CS(=O)(=O)N1CCN(Cc2cc3nc(-c4cccc5[nH]ncc45)nc(N4CCOCC4)c3s2)CC1 [Pictilisib] (partner 1 µM) returned a relative viability of 0.583.

As for `CCCCCCCCCCCC1=C(O)C(=O)C=C(O)C1=O` [Embelin] + C[C@@H](Oc1cc(-c2cnn(C3CCNCC3)c2)cnc1N)c1c(Cl)ccc(F)c1Cl [Crizotinib] (partner 1 µM), the relative viability is 0.845.

The test is the same for the next values; noted with them: first compound 0.8 µM.
For the compound `CCCCCCCCCCCC1=C(O)C(=O)C=C(O)C1=O` [Embelin] + O=C(CCCCCCC(=O)Nc1ccccc1)NO [Vorinostat] (partner 1 µM), the relative viability was found to be 0.613.

As to `CCCCCCCCCCCC1=C(O)C(=O)C=C(O)C1=O` [Embelin] + Cc1cc(Nc2cc(N3CCN(C)CC3)nc(Sc3ccc(NC(=O)C4CC4)cc3)n2)n[nH]1 [Tozasertib] (partner 0.1 µM), the relative viability came to 0.591.

Compound `CCCCCCCCCCCC1=C(O)C(=O)C=C(O)C1=O` [Embelin] + COc1cc2c(Oc3ccc(NC(=O)C4(C(=O)Nc5ccc(F)cc5)CC4)cc3F)ccnc2cc1OCCCN1CCOCC1 [Foretinib] (partner 0.25 µM) registered a relative viability of 0.954.

As to `CCCCCCCCCCCC1=C(O)C(=O)C=C(O)C1=O` [Embelin] + CS(=O)(=O)N1CCN(Cc2cc3nc(-c4cccc5[nH]ncc45)nc(N4CCOCC4)c3s2)CC1 [Pictilisib] (partner 1 µM), the relative viability turned out to be 0.704.

The compound `CCCCCCCCCCCC1=C(O)C(=O)C=C(O)C1=O` [Embelin] + C[C@@H](Oc1cc(-c2cnn(C3CCNCC3)c2)cnc1N)c1c(Cl)ccc(F)c1Cl [Crizotinib] (partner 1 µM) returned a relative viability of 1.18.

The same test, now with this note: first compound 2.53 µM.
As to `CCCCCCCCCCCC1=C(O)C(=O)C=C(O)C1=O` [Embelin] + O=C(CCCCCCC(=O)Nc1ccccc1)NO [Vorinostat] (partner 1 µM), the relative viability stood at 0.647.

As to `CCCCCCCCCCCC1=C(O)C(=O)C=C(O)C1=O` [Embelin] + Cc1cc(Nc2cc(N3CCN(C)CC3)nc(Sc3ccc(NC(=O)C4CC4)cc3)n2)n[nH]1 [Tozasertib] (partner 0.1 µM), the relative viability worked out at 0.542.

Compound `CCCCCCCCCCCC1=C(O)C(=O)C=C(O)C1=O` [Embelin] + COc1cc2c(Oc3ccc(NC(=O)C4(C(=O)Nc5ccc(F)cc5)CC4)cc3F)ccnc2cc1OCCCN1CCOCC1 [Foretinib] (partner 0.25 µM) yielded a relative viability of 0.677.

`CCCCCCCCCCCC1=C(O)C(=O)C=C(O)C1=O` [Embelin] + CS(=O)(=O)N1CCN(Cc2cc3nc(-c4cccc5[nH]ncc45)nc(N4CCOCC4)c3s2)CC1 [Pictilisib] (partner 1 µM) gave a relative viability of 0.743.

The compound `CCCCCCCCCCCC1=C(O)C(=O)C=C(O)C1=O` [Embelin] + C[C@@H](Oc1cc(-c2cnn(C3CCNCC3)c2)cnc1N)c1c(Cl)ccc(F)c1Cl [Crizotinib] (partner 1 µM) displayed a relative viability of 1.17.

Still in this test, the particulars now being: first compound 8 µM.
For the compound `CCCCCCCCCCCC1=C(O)C(=O)C=C(O)C1=O` [Embelin] + O=C(CCCCCCC(=O)Nc1ccccc1)NO [Vorinostat] (partner 1 µM), the relative viability came to 0.515.

Consider `CCCCCCCCCCCC1=C(O)C(=O)C=C(O)C1=O` [Embelin] + Cc1cc(Nc2cc(N3CCN(C)CC3)nc(Sc3ccc(NC(=O)C4CC4)cc3)n2)n[nH]1 [Tozasertib] (partner 0.1 µM), for which the relative viability was 0.512.

The compound `CCCCCCCCCCCC1=C(O)C(=O)C=C(O)C1=O` [Embelin] + COc1cc2c(Oc3ccc(NC(=O)C4(C(=O)Nc5ccc(F)cc5)CC4)cc3F)ccnc2cc1OCCCN1CCOCC1 [Foretinib] (partner 0.25 µM) displayed a relative viability of 0.867.
